Consider 9 compounds from ChEMBL document CHEMBL5512655, “Discovery of indolylacryloyl-derived oxacins as novel potential broad-spectrum antibacterial candidates” (Eur J Med Chem, 2024).

Converted amounts (≈) assume the structure as drawn.

Assay type in all cases: functional
The test system of assay [1] is Staphylococcus aureus. Briefly: Antibacterial activity against Staphylococcus aureus ATCC 29213 assessed as inhibition of bacterial growth measured after 24 hrs incubation.
Assay [2] relates to Pseudomonas aeruginosa. Briefly: Antibacterial activity against Pseudomonas aeruginosa assessed as inhibition of bacterial growth measured after 24 hrs incubation.
In assay [3] the test system is Staphylococcus aureus. Briefly: Antibacterial activity against Staphylococcus aureus assessed as inhibition of bacterial growth measured after 24 hrs incubation.
Assay [4] concerns Enterococcus faecalis. The experiment in a line: Antibacterial activity against Enterococcus faecalis assessed as inhibition of bacterial growth measured after 24 hrs incubation.
In assay [5] the test system is Pseudomonas aeruginosa. The experiment in a line: Antibacterial activity against Pseudomonas aeruginosa ATCC 27853 assessed as inhibition of bacterial growth measured after 24 hrs incubation.
The subject of assay [6] is Acinetobacter baumannii. Briefly: Antibacterial activity against Acinetobacter baumannii assessed as inhibition of bacterial growth measured after 24 hrs incubation.
The subject of assay [7] is Klebsiella pneumoniae. Briefly: Antibacterial activity against Klebsiella pneumonia assessed as inhibition of bacterial growth measured after 24 hrs incubation.
In assay [8] the test system is Escherichia coli. The experiment in a line: Antibacterial activity against Escherichia coli assessed as inhibition of bacterial growth measured after 24 hrs incubation.
For assay [9], the system named is Escherichia coli. Briefly: Antibacterial activity against Escherichia coli ATCC 25922 assessed as inhibition of bacterial growth measured after 24 hrs incubation.
Assay [10] deals with Staphylococcus aureus. The experiment in a line: Antibacterial activity against Staphylococcus aureus ATCC 25923 assessed as inhibition of bacterial growth measured after 24 hrs incubation.
The subject of assay [11] is Staphylococcus aureus. Briefly: Antibacterial activity against methicillin-resistant Staphylococcus aureus N315 assessed as inhibition of bacterial growth measured after 24 hrs incubation.

As for `CCn1cc(C(=O)O)c(=O)c2cc(F)c(N3CCN(C(=O)/C(C#N)=C/c4cn(CCN5CCOCC5)c5ccccc45)CC3)cc21`, the MIC (usually the lowest concentration that inhibits growth of the organism) is 0.5 µg/mL (≈ 0.798 µM) in assay [1]; 1 µg/mL (≈ 1.6 µM) in assay [2]; 0.5 µg/mL (≈ 0.798 µM) in [3]; 0.25 µg/mL (≈ 0.399 µM) in assay [4]; 1 µg/mL (≈ 1.6 µM) in assay [5]; 0.5 µg/mL (≈ 0.798 µM) in assay [6]. The minimal inhibitory concentration (MIC) in [7] was determined as 2 µg/mL (≈ 3.19 µM); in assay [8], 1 µg/mL (≈ 1.6 µM); in [9] it was 2 µg/mL (≈ 3.19 µM); in assay [10], 4 µg/mL (≈ 6.38 µM); in [11], 0.25 µg/mL (≈ 0.399 µM).

For `CCCCCCn1cc(/C=C(\C#N)C(=O)N2CCN(c3cc4c(cc3F)c(=O)c(C(=O)O)cn4CC)CC2)c2ccccc21`, the MIC in [1] was determined as 4 µg/mL (≈ 6.69 µM); in assay [2] it was 16 µg/mL (≈ 26.8 µM); in assay [3] it was 0.5 µg/mL (≈ 0.837 µM); in assay [4], 32 µg/mL (≈ 53.5 µM); in assay [5], 0.5 µg/mL (≈ 0.837 µM); in [6], 16 µg/mL (≈ 26.8 µM). Besides, the MIC in assay [7] worked out at 1 µg/mL (≈ 1.67 µM); in assay [8], 0.5 µg/mL (≈ 0.837 µM); in assay [9], 2 µg/mL (≈ 3.35 µM); in [10], 64 µg/mL (≈ 107 µM); in assay [11], 0.5 µg/mL (≈ 0.837 µM).

For the compound `CCn1cc(C(=O)O)c(=O)c2cc(F)c(N3CCN(C(=O)/C(C#N)=C/c4cn(CC5CC5)c5ccccc45)CC3)cc21`, the MIC in assay [1] was found to be 0.5 µg/mL (≈ 0.881 µM); in assay [2], 1 µg/mL (≈ 1.76 µM); in assay [3], 4 µg/mL (≈ 7.05 µM); in [4], 1 µg/mL (≈ 1.76 µM); in [5] it was 0.5 µg/mL (≈ 0.881 µM); in assay [6] it was 2 µg/mL (≈ 3.52 µM). Also, the minimal inhibitory concentration (MIC) in assay [7] came to 1 µg/mL (≈ 1.76 µM); in assay [8], 4 µg/mL (≈ 7.05 µM); in assay [9], 1 µg/mL (≈ 1.76 µM); in assay [10], 1 µg/mL (≈ 1.76 µM); in assay [11] it was 0.5 µg/mL (≈ 0.881 µM).

For `CCn1cc(C(=O)O)c(=O)c2cc(F)c(N3CCN(C(=O)/C(C#N)=C/c4cn(Cc5ccccc5Cl)c5ccccc45)CC3)cc21`, the MIC in assay [1] is 64 µg/mL (≈ 100 µM); in assay [2], 16 µg/mL (≈ 25.1 µM); in assay [3], 256 µg/mL (≈ 401 µM); in assay [4], 16 µg/mL (≈ 25.1 µM); in assay [5], 1 µg/mL (≈ 1.57 µM); in assay [6], 8 µg/mL (≈ 12.5 µM). In addition, the MIC in [7] was determined as 32 µg/mL (≈ 50.1 µM); in assay [8], 1 µg/mL (≈ 1.57 µM); in [9] it was 0.25 µg/mL (≈ 0.392 µM); in assay [10] it was 32 µg/mL (≈ 50.1 µM); in assay [11] it was 32 µg/mL (≈ 50.1 µM).

For the compound `CCn1cc(C(=O)O)c(=O)c2cc(F)c(N3CCN(C(=O)/C(C#N)=C/c4cn(CC(=O)N5CCOCC5)c5ccccc45)CC3)cc21`, the MIC in assay [1] came out at 4 µg/mL (≈ 6.24 µM); in assay [2], 1 µg/mL (≈ 1.56 µM); in assay [3], 8 µg/mL (≈ 12.5 µM); in [4], 1 µg/mL (≈ 1.56 µM); in assay [5], 0.25 µg/mL (≈ 0.39 µM); in assay [6], 0.5 µg/mL (≈ 0.78 µM). Further, the minimum inhibitory concentration (MIC) in assay [7] worked out at 1 µg/mL (≈ 1.56 µM); in assay [8], 0.5 µg/mL (≈ 0.78 µM); in assay [9], 0.5 µg/mL (≈ 0.78 µM); in assay [10], 2 µg/mL (≈ 3.12 µM); in assay [11], 2 µg/mL (≈ 3.12 µM).

For the compound `CCOC(=O)Cn1cc(/C=C(\C#N)C(=O)N2CCN(c3cc4c(cc3F)c(=O)c(C(=O)O)cn4CC=C(C)C)CC2)c2ccccc21`, the MIC in assay [1] was found to be 8 µg/mL (≈ 12.5 µM); in [2] it was 16 µg/mL (≈ 25 µM); in assay [3], 16 µg/mL (≈ 25 µM); in assay [4] it was 0.25 µg/mL (≈ 0.391 µM); in assay [5], 16 µg/mL (≈ 25 µM); in [6] it was 16 µg/mL (≈ 25 µM). Moreover, the MIC in assay [7] is 1 µg/mL (≈ 1.56 µM); in assay [8], 32 µg/mL (≈ 50 µM); in assay [9], 0.5 µg/mL (≈ 0.782 µM); in assay [10], 16 µg/mL (≈ 25 µM); in assay [11] it was 8 µg/mL (≈ 12.5 µM).

As to `CCn1cc(C(=O)O)c(=O)c2cc(F)c(N3CCNCC3)cc21` [NORFLOXACIN], the minimal inhibitory concentration (MIC) in [1] was 1 µg/mL (≈ 3.13 µM); in assay [2], 4 µg/mL (≈ 12.5 µM); in assay [3], 0.5 µg/mL (≈ 1.57 µM); in [4] it was 0.5 µg/mL (≈ 1.57 µM); in [5] it was 1 µg/mL (≈ 3.13 µM); in [6] it was 1 µg/mL (≈ 3.13 µM). The MIC came out at 0.5 µg/mL (≈ 1.57 µM) in assay [7]; 2 µg/mL (≈ 6.26 µM) in assay [8]; 0.5 µg/mL (≈ 1.57 µM) in assay [9]; 2 µg/mL (≈ 6.26 µM) in [10]; 0.5 µg/mL (≈ 1.57 µM) in [11].

For `C=CCn1cc(/C=C(\C#N)C(=O)N2CCN(c3cc4c(cc3F)c(=O)c(C(=O)O)cn4CC)CC2)c2ccccc21`, the minimum inhibitory concentration (MIC) in assay [1] turned out to be 16 µg/mL (≈ 28.9 µM); in [2], 1 µg/mL (≈ 1.81 µM); in assay [3] it was 1 µg/mL (≈ 1.81 µM); in assay [4], 8 µg/mL (≈ 14.5 µM); in assay [5] it was 0.25 µg/mL (≈ 0.452 µM); in [6], 2 µg/mL (≈ 3.61 µM). Besides, the MIC came out at 1 µg/mL (≈ 1.81 µM) in assay [7]; 8 µg/mL (≈ 14.5 µM) in assay [8]; 1 µg/mL (≈ 1.81 µM) in assay [9]; 1 µg/mL (≈ 1.81 µM) in [10]; 2 µg/mL (≈ 3.61 µM) in [11].

With `CCCCCn1cc(/C=C(\C#N)C(=O)N2CCN(c3cc4c(cc3F)c(=O)c(C(=O)O)cn4CC)CC2)c2ccccc21`, the MIC amounted to 8 µg/mL (≈ 13.7 µM) in assay [1]; 4 µg/mL (≈ 6.85 µM) in assay [2]; 32 µg/mL (≈ 54.8 µM) in assay [3]; 8 µg/mL (≈ 13.7 µM) in assay [4]; 0.5 µg/mL (≈ 0.857 µM) in [5]; 2 µg/mL (≈ 3.43 µM) in [6]. Besides, the MIC was determined as 0.5 µg/mL (≈ 0.857 µM) in assay [7]; 2 µg/mL (≈ 3.43 µM) in [8]; 4 µg/mL (≈ 6.85 µM) in assay [9]; 1 µg/mL (≈ 1.71 µM) in assay [10]; 16 µg/mL (≈ 27.4 µM) in [11].
